For one series, the species on record is Homo sapiens. Put plainly: Selectivity ratio of IC50 for HDAC1 (unknown origin) to IC50 for HDAC6 (unknown origin).
A further series concerns Jurkat. Put plainly: Antiproliferative activity against human Jurkat cells after 72 hrs by MTT assay. It is filed as functional, cell-based. A general note: Tetrazolium assays rely on reduction of a dye to a coloured formazan, in cell work by metabolically active cells.
For series [1], the target named is T1, Tyrosine-protein kinase JAK2 (Homo sapiens, UniProt O60674). Put plainly: Inhibition of human JAK2 using poly(Glu:Tyr)(4:1) as substrate preincubated for 20 mins followed by [gamma33P]ATP addition measured after 120 mins by ion exchange filter paper method.
T1 sequence (O60674 whole entry): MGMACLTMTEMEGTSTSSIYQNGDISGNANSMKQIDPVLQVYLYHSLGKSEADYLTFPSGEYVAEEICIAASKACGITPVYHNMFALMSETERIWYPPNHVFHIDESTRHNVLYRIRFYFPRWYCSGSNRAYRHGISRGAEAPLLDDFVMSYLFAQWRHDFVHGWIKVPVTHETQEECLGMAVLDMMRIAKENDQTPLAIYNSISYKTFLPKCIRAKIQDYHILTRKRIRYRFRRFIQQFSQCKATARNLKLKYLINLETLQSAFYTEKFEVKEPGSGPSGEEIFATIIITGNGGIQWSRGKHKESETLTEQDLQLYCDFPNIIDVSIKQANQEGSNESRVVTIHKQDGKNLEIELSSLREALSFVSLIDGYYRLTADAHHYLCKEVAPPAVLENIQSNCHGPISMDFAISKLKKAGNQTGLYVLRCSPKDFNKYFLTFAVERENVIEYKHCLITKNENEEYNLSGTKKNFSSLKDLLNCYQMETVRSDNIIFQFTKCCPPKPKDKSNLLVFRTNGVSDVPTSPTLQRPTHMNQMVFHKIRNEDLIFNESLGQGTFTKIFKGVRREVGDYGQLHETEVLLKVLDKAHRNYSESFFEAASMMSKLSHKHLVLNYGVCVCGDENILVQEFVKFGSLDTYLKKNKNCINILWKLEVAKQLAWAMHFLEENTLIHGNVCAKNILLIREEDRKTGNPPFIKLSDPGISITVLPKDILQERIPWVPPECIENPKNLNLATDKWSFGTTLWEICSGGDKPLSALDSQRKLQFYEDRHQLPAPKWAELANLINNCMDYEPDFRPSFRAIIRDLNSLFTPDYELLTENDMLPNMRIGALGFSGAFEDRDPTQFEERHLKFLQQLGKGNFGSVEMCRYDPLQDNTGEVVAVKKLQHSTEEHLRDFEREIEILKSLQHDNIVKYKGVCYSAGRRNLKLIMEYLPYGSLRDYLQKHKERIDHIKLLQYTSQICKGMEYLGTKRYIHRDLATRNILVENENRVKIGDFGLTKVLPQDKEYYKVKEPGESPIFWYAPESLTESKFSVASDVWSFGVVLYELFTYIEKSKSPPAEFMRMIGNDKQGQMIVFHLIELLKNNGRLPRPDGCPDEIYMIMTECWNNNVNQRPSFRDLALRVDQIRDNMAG
The test system of another series is MDA-MB-231. Put plainly: Antiproliferative activity against human MDA-MB-231 cells after 72 hrs by MTT assay. Format: functional, cell-based. The following applies: MDA-MB-231, 72 h.
Another series has as its system MCF7. Put plainly: Antiproliferative activity against human MCF7 cells after 72 hrs by MTT assay. It is filed as functional, cell-based. The following applies: MCF7, 72 h.
The next series deals with PC-3. Put plainly: Antiproliferative activity against human PC3 cells after 72 hrs by MTT assay. It is filed as functional, cell-based. The settings on record: PC-3, 72 h.
A further series deals with Histone deacetylase 1 (Homo sapiens, UniProt Q13547). Kind of series: Inhibition of HDAC1 (unknown origin) using Arg-His-Lys-Lys(Ac) as substrate preincubated with enzyme followed by substrate addition for 2 hrs and measured for 1.5 hrs at 15 mins time interval by fluorescence assay.
Chain of Histone deacetylase 1 (Q13547 whole entry): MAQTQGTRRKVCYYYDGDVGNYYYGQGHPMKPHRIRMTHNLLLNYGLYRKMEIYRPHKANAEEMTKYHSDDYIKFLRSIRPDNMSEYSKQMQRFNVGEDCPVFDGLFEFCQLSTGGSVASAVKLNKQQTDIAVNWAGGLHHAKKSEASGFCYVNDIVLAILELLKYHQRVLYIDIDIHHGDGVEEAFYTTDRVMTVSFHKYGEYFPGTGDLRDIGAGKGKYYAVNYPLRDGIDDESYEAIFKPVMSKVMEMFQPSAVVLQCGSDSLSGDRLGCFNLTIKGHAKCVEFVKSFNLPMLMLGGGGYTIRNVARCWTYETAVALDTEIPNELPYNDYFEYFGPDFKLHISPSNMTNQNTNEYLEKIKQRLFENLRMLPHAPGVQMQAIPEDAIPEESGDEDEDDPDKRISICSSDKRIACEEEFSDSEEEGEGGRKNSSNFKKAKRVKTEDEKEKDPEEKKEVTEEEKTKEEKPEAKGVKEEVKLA
The target of series [2] is T2, Protein deacetylase HDAC6 (Homo sapiens, UniProt Q9UBN7).
T2 sequence (Q9UBN7 whole entry): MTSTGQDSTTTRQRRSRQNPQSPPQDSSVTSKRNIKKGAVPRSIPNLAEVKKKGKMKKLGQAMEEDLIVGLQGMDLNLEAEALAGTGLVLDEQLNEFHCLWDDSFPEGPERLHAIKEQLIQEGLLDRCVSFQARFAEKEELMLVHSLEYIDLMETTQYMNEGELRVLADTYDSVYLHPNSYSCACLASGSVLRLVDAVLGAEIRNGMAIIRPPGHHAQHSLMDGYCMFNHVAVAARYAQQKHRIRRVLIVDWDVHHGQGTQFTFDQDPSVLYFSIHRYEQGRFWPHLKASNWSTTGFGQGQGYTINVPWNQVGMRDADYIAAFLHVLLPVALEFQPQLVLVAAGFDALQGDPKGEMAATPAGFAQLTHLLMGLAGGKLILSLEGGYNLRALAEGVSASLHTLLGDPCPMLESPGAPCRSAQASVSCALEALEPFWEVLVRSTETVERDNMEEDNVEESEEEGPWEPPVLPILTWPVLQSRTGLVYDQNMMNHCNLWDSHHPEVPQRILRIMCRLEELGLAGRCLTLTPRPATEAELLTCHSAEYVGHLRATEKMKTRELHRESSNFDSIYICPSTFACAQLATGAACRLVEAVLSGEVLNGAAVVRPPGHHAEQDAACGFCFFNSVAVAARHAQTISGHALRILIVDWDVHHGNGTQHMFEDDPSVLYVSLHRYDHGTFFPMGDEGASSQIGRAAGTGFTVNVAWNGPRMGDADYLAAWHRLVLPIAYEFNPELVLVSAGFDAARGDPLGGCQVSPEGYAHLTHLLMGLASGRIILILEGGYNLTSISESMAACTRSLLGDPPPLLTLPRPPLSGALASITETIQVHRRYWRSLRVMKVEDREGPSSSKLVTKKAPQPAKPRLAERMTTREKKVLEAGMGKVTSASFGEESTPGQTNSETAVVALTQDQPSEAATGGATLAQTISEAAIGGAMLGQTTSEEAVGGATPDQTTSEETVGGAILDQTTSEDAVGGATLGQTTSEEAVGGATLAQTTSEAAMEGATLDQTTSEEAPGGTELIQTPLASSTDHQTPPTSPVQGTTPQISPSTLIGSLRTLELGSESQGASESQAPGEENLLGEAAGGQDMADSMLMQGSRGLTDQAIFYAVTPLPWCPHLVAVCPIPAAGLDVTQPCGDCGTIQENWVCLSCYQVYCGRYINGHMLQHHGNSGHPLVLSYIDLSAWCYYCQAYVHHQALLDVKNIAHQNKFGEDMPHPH
Kind of series: Inhibition of HDAC6 (unknown origin) using Arg-His-Lys-Lys(Ac) as substrate preincubated with enzyme followed by substrate addition for 2 hrs and measured for 1.5 hrs at 15 mins time interval by fluorescence assay.

Another series concerns HCT-116. Kind of series: Antiproliferative activity against human HCT116 cells after 72 hrs by MTT assay. The following applies: HCT-116, 72 h. Format: functional, cell-based.
Another series relates to HEL 92.1.7. Kind of series: cells. It is filed as functional, cell-based. The following applies: Homo sapiens, HEL 92.1.7, 72 h.
A short description of series [3]: Antiproliferative activity against mouse TAMH cells after 72 hrs by MTT assay. It is filed as cell-based.
Series [4] in a line: Selectivity index, ratio of CC50 for mouse TAMH cells to IC50 for human XG6 cells. Format: toxicity. The settings on record: TAMH cells (CC50) and XG6 cells (IC50).
Series [5] in a line: Selectivity index, ratio of CC50 for human AC10 cells to IC50 for human KMS-12-BM cells. Format: toxicity. The settings on record: AC10 cells (CC50) and KMS-12-BM cells (IC50).
The target of series [6] is T1, Tyrosine-protein kinase JAK2. Put plainly: Inhibition of JAK2 in human HeLa cells assessed as increase in JAK2 phosphorylation at 15 to 20 uM after 1 hr by immunoblot analysis. Format: cell-based. For orientation: Immunoblotting shows a protein as a band on a membrane.
Series [7] is described as follows: Antiproliferative activity against human XG6 cells after 72 hrs by MTT assay. It is filed as functional, cell-based. The following applies: XG6, 72 h.
Series [8] has as its target Histone deacetylase 1/2/3 (Homo sapiens) (UniProt Q13547+O15379+Q92769). Kind of series: Inhibition of HDAC1/HDAC2/HDAC3 in human HEL 92.1.7 cells assessed as increase in acetylated […] level at 1 uM after 1 hr by immunoblot analysis. It is filed as cell-based.
In series [9] the target is T3, Protein deacetylase HDAC6 (Homo sapiens) (UniProt Q9UBN7).
T3 sequence (whole entry): T2 sequence (Q9UBN7 whole entry)
Kind of series: Inhibition of HDAC6 in human HEL 92.1.7 cells assessed as increase in acetylated tubulin level at 1 uM after 1 hr by immunoblot analysis. It is filed as cell-based.

The next series deals with KMS-12-BM. Kind of series: Antiproliferative activity against human KMS-12-BM cells after 72 hrs by MTT assay. Format: functional, cell-based.
Series [10] can be described thus: Selectivity index, ratio of CC50 for human AC10 cells to IC50 for human XG6 cells. It is filed as toxicity. The following applies: AC10 cells (CC50) and XG6 cells (IC50).
Series [11] is described as follows: Antiproliferative activity against human AC10 cells after 72 hrs by MTT assay. It is filed as cell-based.
In series [12] the target is T1, Tyrosine-protein kinase JAK2. Kind of series: Inhibition of JAK2 in human HeLa cells assessed as reduction in STAT5 phosphorylation at 15 to 20 uM after 1 hr by immunoblot analysis. It is filed as cell-based.
Series [13] is described as follows: Selectivity index, ratio of CC50 for mouse TAMH cells to IC50 for human KMS-12-BM cells. Format: toxicity. The settings on record: TAMH cells (CC50) and KMS-12-BM cells (IC50).
Series [14] has as its target T1, Tyrosine-protein kinase JAK2. Kind of series: Inhibition of human JAK2 at 10 uM using poly(Glu:Tyr)(4:1) as substrate preincubated for 20 mins followed by [gamma33P]ATP addition measured after 120 mins by ion exchange filter paper method relative to control.
A short description of series [15]: Selectivity index, ratio of CC50 for human AC10 cells to IC50 for human HCT116 cells. It is filed as toxicity. The following applies: AC10 cells (CC50) and HCT116 cells (IC50).
Series [16] is described as follows: Selectivity index, ratio of CC50 for human AC10 cells to IC50 for human PC3 cells. It is filed as toxicity. The settings on record: AC10 cells (CC50) and PC3 cells (IC50).
Series [17] in a line: Selectivity index, ratio of CC50 for mouse TAMH cells to IC50 for human MCF7 cells. Format: toxicity. The settings on record: TAMH cells (CC50) and MCF7 cells (IC50).
The nature of series [18]: Selectivity index, ratio of CC50 for human AC10 cells to IC50 for human MDA-MB-231 cells. It is filed as toxicity. The settings on record: AC10 cells (CC50) and MDA-MB-231 cells (IC50).
Series [19] can be described thus: Selectivity index, ratio of CC50 for human AC10 cells to IC50 for human HEL 92.1.7 cells. Format: toxicity. The following applies: AC10 cells (CC50) and HEL 92.1.7 cells (IC50).
Series [20] can be described thus: Selectivity index, ratio of CC50 for mouse TAMH cells to IC50 for human HEL 92.1.7 cells. The settings on record: TAMH cells (CC50) and HEL 92.1.7 cells (IC50). It is filed as toxicity.
Series [21] can be described thus: Selectivity index, ratio of CC50 for mouse TAMH cells to IC50 for human Jurkat cells. It is filed as toxicity. The following applies: TAMH cells (CC50) and Jurkat cells (IC50).
Series [22] is described as follows: Selectivity index, ratio of CC50 for mouse TAMH cells to IC50 for human HCT116 cells. The settings on record: TAMH cells (CC50) and HCT116 cells (IC50). Format: toxicity.
Series [23] is described as follows: Selectivity index, ratio of CC50 for human AC10 cells to IC50 for human MCF7 cells. The settings on record: AC10 cells (CC50) and MCF7 cells (IC50). Format: toxicity.
Series [24] is described as follows: Selectivity index, ratio of CC50 for mouse TAMH cells to IC50 for human MDA-MB-231 cells. Format: toxicity. The settings on record: TAMH cells (CC50) and MDA-MB-231 cells (IC50).
Series [25] is described as follows: Selectivity index, ratio of CC50 for mouse TAMH cells to IC50 for human PC3 cells. Format: toxicity. The following applies: TAMH cells (CC50) and PC3 cells (IC50).
A short description of series [26]: Selectivity index, ratio of CC50 for human AC10 cells to IC50 for human Jurkat cells. It is filed as toxicity. The settings on record: AC10 cells (CC50) and Jurkat cells (IC50).

Each structure is given as a SMILES string. Activity calls are given as the source filed them. No cut-off for these calls is given here. Some results are limits rather than exact numbers.

Description for HEL 92.1.7: Antiproliferative activity against human HEL 92.1.7 cells after 72 hrs by MTT assay

For orientation: IC50 means the concentration that gives 50% inhibition. Low readings indicate greater potency, high ones weaker potency. For `CC(=O)Nc1ccc(-c2ccnc(Nc3cccc(NC(=O)CCCCC(=O)NO)c3)n2)cc1`, the Ratio IC50 in the series filed under Homo sapiens amounted to 100. Also, the IC50 is more than 10000 nM in the series with Jurkat; 2.6 nM in [1]; 14600 nM with MDA-MB-231; 26700 nM in the series with MCF7; 18600 nM in the series on PC-3; 384 nM against Histone deacetylase 1. The half-maximal inhibitory concentration (IC50) was 4.6 nM in series [2], 34100 nM in the series on HCT-116 and more than 10000 nM in the series with HEL 92.1.7.

One may read the CC50 as the concentration that lowers cell viability or growth by half. The term inhibition denotes the change of the read-out against control, counted positive when it falls. For the compound `CC(=O)Nc1ccc(-c2ccnc(Nc3ccc(NC(=O)CCCCCCC(=O)NO)cc3)n2)cc1`, the half-maximal cytotoxic concentration (CC50) at 72 h in series [3] stood at 12500 nM; in series [11], 19500 nM. For the same compound, the selectivity ratio was determined as 3.95 in series [4], 16.8 in series [5], 6.16 in series [10] and 10.8 in [13]. In addition, the Ratio IC50 in the series listed under Homo sapiens is more than 7000. In addition, the inhibition result in [6], in series [8], in series [9] and in series [12] was “Active” in each case. For the same compound, the half-inhibitory concentration (IC50) is 3170 nM in [7]; 0.9 nM in [1]; 1540 nM in the series with MDA-MB-231; 1090 nM with MCF7; 1160 nM in the series on KMS-12-BM; 3840 nM with PC-3. In addition, the half-maximal inhibitory concentration (IC50) amounted to 774 nM against Histone deacetylase 1, 0.1 nM in series [2], 1970 nM in the series on HCT-116 and 2530 nM with HEL 92.1.7.

With `CC(=O)Nc1ccc(-c2ccnc(Nc3ccccc3)n2)cc1`, 27.4 nM corresponded to half-maximal inhibition in series [1] (IC50). Besides, the inhibition in series [14] was determined as 96.4%.

With `CC(=O)Nc1ccc(-c2ccnc(NCc3ccccc3)n2)cc1`, the inhibition in series [14] was 3.85%.

As for `CC(=O)Nc1ccc(-c2ccnc(NCCc3ccccc3)n2)cc1`, in series [14], the inhibition worked out at 6.22%.

With `CC(=O)Nc1ccc(-c2ccnc(Nc3ccc(OCCCCCCC(=O)NO)cc3)n2)cc1`, the selectivity ratio in series [15] is 2.41; in series [16], 1.63; in series [4], 1.76; in [17], 4.52; in series [18], 1.53; in [5], 23.9. For the same compound, the selectivity ratio in series [19] worked out at 1.58; in [20], 2.42; in series [21] it was 2.07; in series [22], 3.7; in series [23] it was 2.95; in series [24], 2.35. Besides, the selectivity ratio in series [10] came out at 1.15; in series [25], 2.49; in series [26], 0.89; in [13], 36.6. Further, the CC50 at 72 h in series [3] worked out at 3660 nM; in [11], 2390 nM. Besides, the IC50 is 1770 nM with Jurkat; 2080 nM in [7]; 23 nM in series [1]; 1560 nM in the series with MDA-MB-231; 810 nM in the series on MCF7; 100 nM in the series with KMS-12-BM. Moreover, the IC50 amounted to 1470 nM with PC-3; 145 nM on Histone deacetylase 1; 3 nM in series [2]; 990 nM with HCT-116; 1510 nM with HEL 92.1.7.

The values are drawn from ChEMBL document CHEMBL4265943, “Design and synthesis of potent dual inhibitors of JAK2 and HDAC based on fusing the pharmacophores of XL019 and vorinostat” (Eur J Med Chem, 2018).
